Experimental data from PubChem BioAssay (NCI).
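In this assay, cells in 96-well plates receive the compound at five concentrations for 48 hours. Endpoints are linearly interpolated between the surrounding concentrations. Abbreviation: GI50, concentration required for 50% inhibition of growth. TGI marks complete inhibition of growth.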

Legend:
Assay in all cases: inhibition of tumour cell growth, NCI panel, 48 h
PC-3 prostate = system: PC-3 prostate
HOP-92 NSCLC = system: HOP-92 NSCLC
HCT-15 colon = system: HCT-15 colon
K-562 leukemia = system: K-562 leukemia
SR leukemia = system: SR leukemia
HCC-2998 colon = system: HCC-2998 colon
NCI/ADR-RES ovarian = system: NCI/ADR-RES ovarian
MCF7 breast = system: MCF7 breast
MDA-MB-435 = system: MDA-MB-435
OVCAR-5 ovarian = system: OVCAR-5 ovarian
NCI-H522 lung = system: NCI-H522 lung
RPMI-8226 leukemia = system: RPMI-8226 leukemia
HCT-116 colon = system: HCT-116 colon
SK-MEL-28 melanoma = system: SK-MEL-28 melanoma
ACHN renal = system: ACHN renal
SW-620 colon = system: SW-620 colon
SK-OV-3 ovarian = system: SK-OV-3 ovarian
HS 578T breast = system: HS 578T breast
MDA-MB-231 breast = system: MDA-MB-231 breast
IGROV1 ovarian = system: IGROV1 ovarian
KM12 colon = system: KM12 colon
SF-539 CNS = system: SF-539 CNS
LOX IMVI melanoma = system: LOX IMVI melanoma
UACC-257 melanoma = system: UACC-257 melanoma
MOLT-4 leukemia = system: MOLT-4 leukemia
RXF 393 renal = system: RXF 393 renal
U251 CNS = system: U251 CNS
OVCAR-4 ovarian = system: OVCAR-4 ovarian
CAKI-1 renal = system: CAKI-1 renal
A498 renal = system: A498 renal
HT29 colon = system: HT29 colon
NCI-H226 lung = system: NCI-H226 lung
NCI-H460 lung = system: NCI-H460 lung
SK-MEL-5 melanoma = system: SK-MEL-5 melanoma
MDA-MB-468 breast = system: MDA-MB-468 breast
OVCAR-8 ovarian = system: OVCAR-8 ovarian
A549 NSCLC = system: A549 NSCLC
CCRF-CEM leukemia = system: CCRF-CEM leukemia
SN12C renal = system: SN12C renal
BT-549 breast = system: BT-549 breast
SK-MEL-2 melanoma = system: SK-MEL-2 melanoma
DU-145 prostate = system: DU-145 prostate
M14 melanoma = system: M14 melanoma
SNB-75 CNS = system: SNB-75 CNS
MALME-3M melanoma = system: MALME-3M melanoma
T-47D breast = system: T-47D breast
HOP-62 NSCLC = system: HOP-62 NSCLC
SF-295 CNS = system: SF-295 CNS
UACC-62 melanoma = system: UACC-62 melanoma
TK-10 renal = system: TK-10 renal
SNB-19 CNS = system: SNB-19 CNS
OVCAR-3 ovarian = system: OVCAR-3 ovarian
NCI-H23 lung = system: NCI-H23 lung
SF-268 CNS = system: SF-268 CNS
EKVX NSCLC = system: EKVX NSCLC
COLO 205 colon = system: COLO 205 colon
HL-60(TB) leukemia = system: HL-60(TB) leukemia
UO-31 renal = system: UO-31 renal
786-0 renal = system: 786-0 renal

SMILES: COc1cccc(-c2nn(-c3ccccc3)cc2-c2ccnc(NCCCNC(=O)Nc3ccc(F)cc3)c2)c1
- GI50 (PC-3 prostate): 6.23 µM
- TGI (PC-3 prostate): > 37 µM
- GI50 (HOP-92 NSCLC): 6.25 µM
- TGI (HOP-92 NSCLC): 31.1 µM
- GI50 (HCT-15 colon): 7.64 µM
- TGI (HCT-15 colon): > 37 µM
- GI50 (K-562 leukemia): 2.96 µM
- TGI (K-562 leukemia): > 37 µM
- GI50 (SR leukemia): 7.7 µM
- TGI (SR leukemia): > 37 µM
- GI50 (HCC-2998 colon): 7.38 µM
- TGI (HCC-2998 colon): 20 µM
- GI50 (NCI/ADR-RES ovarian): 7.29 µM
- TGI (NCI/ADR-RES ovarian): 25.4 µM
- GI50 (MCF7 breast): 7.17 µM
- TGI (MCF7 breast): 18 µM
- GI50 (MDA-MB-435): 5.61 µM
- TGI (MDA-MB-435): 12.8 µM
- GI50 (OVCAR-5 ovarian): 11.2 µM
- TGI (OVCAR-5 ovarian): > 37 µM
- GI50 (NCI-H522 lung): 5.07 µM
- TGI (NCI-H522 lung): 12 µM
- GI50 (RPMI-8226 leukemia): 5.96 µM
- TGI (RPMI-8226 leukemia): 24.6 µM
- GI50 (HCT-116 colon): 5.7 µM
- TGI (HCT-116 colon): 17 µM
- GI50 (SK-MEL-28 melanoma): 6.57 µM
- TGI (SK-MEL-28 melanoma): 15.5 µM
- GI50 (ACHN renal): 10.6 µM
- TGI (ACHN renal): > 37 µM
- GI50 (SW-620 colon): 8.02 µM
- TGI (SW-620 colon): > 37 µM
- GI50 (SK-OV-3 ovarian): 10.8 µM
- TGI (SK-OV-3 ovarian): > 37 µM
- GI50 (HS 578T breast): 6.24 µM
- TGI (HS 578T breast): 17.9 µM
- GI50 (MDA-MB-231 breast): 7.84 µM
- TGI (MDA-MB-231 breast): 23 µM
- GI50 (IGROV1 ovarian): 9.34 µM
- TGI (IGROV1 ovarian): > 37 µM
- GI50 (KM12 colon): 10.5 µM
- TGI (KM12 colon): > 37 µM
- GI50 (SF-539 CNS): 6.34 µM
- TGI (SF-539 CNS): 13.4 µM
- GI50 (LOX IMVI melanoma): 5.86 µM
- TGI (LOX IMVI melanoma): 12 µM
- GI50 (UACC-257 melanoma): 7.05 µM
- TGI (UACC-257 melanoma): 16.9 µM
- GI50 (MOLT-4 leukemia): 3.94 µM
- TGI (MOLT-4 leukemia): 19 µM
- GI50 (RXF 393 renal): 6.01 µM
- TGI (RXF 393 renal): 28.6 µM
- GI50 (U251 CNS): 9.84 µM
- TGI (U251 CNS): > 37 µM
- GI50 (OVCAR-4 ovarian): 10.5 µM
- TGI (OVCAR-4 ovarian): > 37 µM
- GI50 (CAKI-1 renal): 8.63 µM
- TGI (CAKI-1 renal): > 37 µM
- GI50 (A498 renal): 7.37 µM
- TGI (A498 renal): 31.4 µM
- GI50 (HT29 colon): 7.17 µM
- TGI (HT29 colon): 18.2 µM
- GI50 (NCI-H226 lung): 10.8 µM
- TGI (NCI-H226 lung): > 37 µM
- GI50 (NCI-H460 lung): 6.54 µM
- TGI (NCI-H460 lung): 17.1 µM
- GI50 (SK-MEL-5 melanoma): 5.64 µM
- TGI (SK-MEL-5 melanoma): 10.8 µM
- GI50 (MDA-MB-468 breast): 4.83 µM
- TGI (MDA-MB-468 breast): 13 µM
- GI50 (OVCAR-8 ovarian): 10.6 µM
- TGI (OVCAR-8 ovarian): > 37 µM
- GI50 (A549 NSCLC): 9.95 µM
- TGI (A549 NSCLC): > 37 µM
- GI50 (CCRF-CEM leukemia): 8.53 µM
- TGI (CCRF-CEM leukemia): 31.5 µM
- GI50 (SN12C renal): 9.83 µM
- TGI (SN12C renal): > 37 µM
- GI50 (BT-549 breast): 6.24 µM
- TGI (BT-549 breast): 20.3 µM
- GI50 (SK-MEL-2 melanoma): 6.3 µM
- TGI (SK-MEL-2 melanoma): 12.6 µM
- GI50 (DU-145 prostate): 14 µM
- TGI (DU-145 prostate): > 37 µM
- GI50 (M14 melanoma): 6.71 µM
- TGI (M14 melanoma): 19 µM
- GI50 (SNB-75 CNS): 4.18 µM
- TGI (SNB-75 CNS): 22.7 µM
- GI50 (MALME-3M melanoma): 5.45 µM
- TGI (MALME-3M melanoma): 10.6 µM
- GI50 (T-47D breast): 7.95 µM
- TGI (T-47D breast): > 37 µM
- GI50 (HOP-62 NSCLC): 14.7 µM
- TGI (HOP-62 NSCLC): > 37 µM
- GI50 (SF-295 CNS): 7.16 µM
- TGI (SF-295 CNS): 21.7 µM
- GI50 (UACC-62 melanoma): 7.57 µM
- TGI (UACC-62 melanoma): 24.2 µM
- GI50 (TK-10 renal): 21.2 µM
- TGI (TK-10 renal): > 37 µM
- GI50 (SNB-19 CNS): 12.1 µM
- TGI (SNB-19 CNS): > 37 µM
- GI50 (OVCAR-3 ovarian): 6.18 µM
- TGI (OVCAR-3 ovarian): > 37 µM
- GI50 (NCI-H23 lung): 10.1 µM
- TGI (NCI-H23 lung): > 37 µM
- GI50 (SF-268 CNS): 7.08 µM
- TGI (SF-268 CNS): 30 µM
- GI50 (EKVX NSCLC): 9.63 µM
- TGI (EKVX NSCLC): > 37 µM
- GI50 (COLO 205 colon): 8.17 µM
- TGI (COLO 205 colon): 29.3 µM
- GI50 (HL-60(TB) leukemia): 3.77 µM
- TGI (HL-60(TB) leukemia): 13.7 µM
- GI50 (UO-31 renal): 5.1 µM
- TGI (UO-31 renal): > 37 µM
- GI50 (786-0 renal): 9.34 µM
- TGI (786-0 renal): > 37 µM
